Like-named read-outs stand apart in the source and are kept apart here.
Legend:
Type in all cases: binding
[1] = biological target: T1, HeLa cell extract proteins (Homo sapiens, UniProt P07195)
T1 construct: endogenous in cells; host or cells: HeLa cell extract

[2] = biological target: T2, HeLa cell extract proteins (Homo sapiens, UniProt Q14CZ7)
T2 construct: endogenous in cells; host or cells: HeLa cell extract
T2 sequence (Q14CZ7 1-662): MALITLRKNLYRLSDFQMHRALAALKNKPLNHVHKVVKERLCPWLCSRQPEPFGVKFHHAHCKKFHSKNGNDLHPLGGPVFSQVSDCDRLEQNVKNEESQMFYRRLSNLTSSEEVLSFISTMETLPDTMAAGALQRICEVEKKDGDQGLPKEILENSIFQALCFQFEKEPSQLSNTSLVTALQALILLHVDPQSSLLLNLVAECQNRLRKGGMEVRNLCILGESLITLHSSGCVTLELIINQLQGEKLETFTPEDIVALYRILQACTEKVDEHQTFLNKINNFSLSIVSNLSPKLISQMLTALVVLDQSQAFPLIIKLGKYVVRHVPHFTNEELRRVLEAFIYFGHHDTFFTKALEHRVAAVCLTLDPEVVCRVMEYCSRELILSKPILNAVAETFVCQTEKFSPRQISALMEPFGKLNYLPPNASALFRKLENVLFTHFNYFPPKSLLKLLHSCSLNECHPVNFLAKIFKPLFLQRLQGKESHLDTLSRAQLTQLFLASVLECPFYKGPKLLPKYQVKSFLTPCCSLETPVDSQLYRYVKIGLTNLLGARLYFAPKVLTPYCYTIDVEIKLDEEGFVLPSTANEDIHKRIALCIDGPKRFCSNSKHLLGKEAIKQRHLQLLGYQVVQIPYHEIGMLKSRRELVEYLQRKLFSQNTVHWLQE

[3] = biological target: T3, HeLa cell extract proteins (Homo sapiens, UniProt Q9H3U1)
T3 construct: endogenous in cells; host or cells: HeLa cell extract
T3 sequence (Q9H3U1 1-944): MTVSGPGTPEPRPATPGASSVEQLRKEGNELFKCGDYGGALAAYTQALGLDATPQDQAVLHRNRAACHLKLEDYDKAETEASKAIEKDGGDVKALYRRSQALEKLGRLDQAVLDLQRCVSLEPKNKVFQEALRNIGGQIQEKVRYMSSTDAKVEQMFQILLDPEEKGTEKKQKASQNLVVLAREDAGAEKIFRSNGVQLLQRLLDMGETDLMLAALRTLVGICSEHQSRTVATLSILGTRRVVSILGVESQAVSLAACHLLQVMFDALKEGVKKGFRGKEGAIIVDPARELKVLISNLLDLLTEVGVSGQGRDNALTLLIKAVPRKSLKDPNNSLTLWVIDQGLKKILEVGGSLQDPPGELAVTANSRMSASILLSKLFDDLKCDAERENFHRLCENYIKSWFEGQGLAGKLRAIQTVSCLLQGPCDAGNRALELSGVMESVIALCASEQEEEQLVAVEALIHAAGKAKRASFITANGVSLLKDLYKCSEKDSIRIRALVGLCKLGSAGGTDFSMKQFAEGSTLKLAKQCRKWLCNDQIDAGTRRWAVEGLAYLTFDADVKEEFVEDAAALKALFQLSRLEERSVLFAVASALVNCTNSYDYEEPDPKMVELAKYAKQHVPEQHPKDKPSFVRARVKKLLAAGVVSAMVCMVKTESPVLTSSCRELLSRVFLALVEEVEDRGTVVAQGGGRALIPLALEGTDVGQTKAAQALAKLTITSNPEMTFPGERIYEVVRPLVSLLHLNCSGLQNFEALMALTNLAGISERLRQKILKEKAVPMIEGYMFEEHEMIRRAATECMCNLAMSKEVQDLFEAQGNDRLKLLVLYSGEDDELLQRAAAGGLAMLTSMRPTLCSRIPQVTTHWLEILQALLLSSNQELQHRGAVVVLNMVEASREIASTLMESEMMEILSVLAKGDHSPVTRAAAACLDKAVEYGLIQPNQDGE

[4] = biological target: T4, HeLa cell extract proteins (Homo sapiens, UniProt P28070)
T4 construct: endogenous in cells; host or cells: HeLa cell extract

[5] = biological target: T5, HeLa cell extract proteins (Homo sapiens, UniProt Q16658)
T5 construct: endogenous in cells; host or cells: HeLa cell extract

[6] = biological target: T6, HeLa cell extract proteins (Homo sapiens, UniProt O43747)
T6 construct: endogenous in cells; host or cells: HeLa cell extract
T6 sequence (O43747 1-822): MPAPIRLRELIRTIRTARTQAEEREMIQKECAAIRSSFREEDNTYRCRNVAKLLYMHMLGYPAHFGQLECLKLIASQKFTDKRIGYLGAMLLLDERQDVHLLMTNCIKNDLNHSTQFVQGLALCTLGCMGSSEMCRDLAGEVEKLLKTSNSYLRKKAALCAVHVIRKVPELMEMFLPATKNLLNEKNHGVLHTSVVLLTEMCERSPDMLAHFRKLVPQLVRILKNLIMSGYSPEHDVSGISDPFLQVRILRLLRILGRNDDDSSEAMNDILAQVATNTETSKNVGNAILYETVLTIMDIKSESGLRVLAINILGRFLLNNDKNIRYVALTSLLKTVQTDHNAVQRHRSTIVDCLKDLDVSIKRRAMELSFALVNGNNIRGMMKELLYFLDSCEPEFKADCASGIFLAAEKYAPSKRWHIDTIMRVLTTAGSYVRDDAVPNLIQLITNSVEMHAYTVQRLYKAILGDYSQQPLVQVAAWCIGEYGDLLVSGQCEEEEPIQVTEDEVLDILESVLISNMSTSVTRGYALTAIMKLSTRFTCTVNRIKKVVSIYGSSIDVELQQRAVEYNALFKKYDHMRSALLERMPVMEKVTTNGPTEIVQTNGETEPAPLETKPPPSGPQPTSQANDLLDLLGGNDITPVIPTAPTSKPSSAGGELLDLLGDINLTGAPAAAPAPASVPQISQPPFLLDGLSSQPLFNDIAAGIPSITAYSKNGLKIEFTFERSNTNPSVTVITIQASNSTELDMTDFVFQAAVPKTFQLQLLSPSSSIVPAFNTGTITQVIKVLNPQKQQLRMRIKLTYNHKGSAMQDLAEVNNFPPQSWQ

[7] = HeLa, protein LDHB (L-LACTATE DEH[…] CHAIN.)

T1 sequence (P07195 whole entry): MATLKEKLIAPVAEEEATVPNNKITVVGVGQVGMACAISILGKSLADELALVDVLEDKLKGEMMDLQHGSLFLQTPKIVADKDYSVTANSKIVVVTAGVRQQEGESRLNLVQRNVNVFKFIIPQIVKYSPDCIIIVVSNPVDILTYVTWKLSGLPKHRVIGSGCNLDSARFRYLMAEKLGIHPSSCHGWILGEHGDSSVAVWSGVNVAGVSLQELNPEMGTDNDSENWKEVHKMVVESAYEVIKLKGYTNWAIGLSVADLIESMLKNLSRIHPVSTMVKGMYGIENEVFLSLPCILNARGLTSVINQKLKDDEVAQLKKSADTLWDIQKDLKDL
T4 sequence (P28070 46-264): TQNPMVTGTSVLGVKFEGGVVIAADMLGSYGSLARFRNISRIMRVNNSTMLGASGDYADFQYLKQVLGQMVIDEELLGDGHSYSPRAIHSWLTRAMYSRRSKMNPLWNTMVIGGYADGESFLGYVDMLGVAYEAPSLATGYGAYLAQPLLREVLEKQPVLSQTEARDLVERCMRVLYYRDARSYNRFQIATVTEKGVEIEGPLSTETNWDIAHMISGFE

Row | SMILES | fold changes relative to vehicle control ([1]; HeLa, captured protein LDHB) | fold changes relative to vehicle control ([2]; HeLa, protein FASTKD3) | fold changes relative to vehicle control ([3]; HeLa, protein UNC45A) | fold changes relative to vehicle control ([4]; HeLa, protein PSMB4) | fold changes relative to vehicle control ([5]; protein FSCN1, HeLa) | fold changes relative to vehicle control ([6]; HeLa, protein AP1G1) | fold changes relative to vehicle control ([2]; captured protein FASTKD3, HeLa) | fold changes relative to vehicle control ([3]; protein UNC45A, HeLa) | fold changes relative to vehicle control ([4]; protein PSMB4, HeLa) | fold changes relative to vehicle control ([6]; protein AP1G1, HeLa) | other results
1 | Nc1nc2c(c(=O)[nH]1)N(C=O)C(CNc1ccc(C(=O)N[C@@H](CCC(=O)O)C(=O)O)cc1)CN2 (stereo partly drawn) [LEU, leucovorin] | 1.21 | 1.02 | 1.07 | 0.98 | 0.95 | 1.1 |  |  |  |  | 
2 | Nc1nc2[nH]cc(CCc3ccc(C(=O)N[C@@H](CCC(=O)O)C(=O)O)cc3)c2c(=O)[nH]1 [PTX, pemetrexed] |  |  |  |  |  |  |  |  |  |  | fold changes relative to vehicle control [1]: 1.35; fold changes relative to vehicle control [2]: 0.86; fold changes relative to vehicle control [3]: 0.99; fold changes relative to vehicle control [4]: 0.97; fold changes relative to vehicle control [5]: 1.08; fold changes relative to vehicle control [6]: 1.09
3 | CCCCCCOc1ccc(Cc2cnc(N)nc2N)cc1 [compound 1] |  |  |  |  | 1.28 |  | 0.93 | 1.44 | 1.12 | 1.19 | fold changes relative to vehicle control [1, 7]: 1.75 fold
4 | CCCCCCOc1cccc(Cc2cnc(N)nc2N)c1 [compound 2] |  |  |  |  | 1.96 |  | 0.94 | 1.53 | 1.21 | 1.51 | fold changes relative to vehicle control ([1]; HeLa, protein LDHB (L-LACTATE DEHYDROGENASE B CHAIN.)): 2.97 fold
5 | Nc1nc2cccc(-c3ccccc3)c2n1Cc1ccc(Cl)c(Cl)c1 [compound 3] |  |  |  |  | 0.96 |  | 0.95 | 0.97 | 1.05 | 0.97 | fold changes relative to vehicle control [1, 7]: 0.94 fold
6 | NCCOCCOCC(=O)Nc1nc2ncc(CNc3ccc(C(=O)NC(CCC(=O)O)C(=O)O)cc3)nc2c(=O)[nH]1 (stereo not drawn) [compound 6] | 1.42 | 1.01 | 1.16 | 1.04 | 1.42 | 1.17 |  |  |  |  | 
7 | NCCCNc1ccc(C(=O)NC(CCC(=O)O)C(=O)O)cc1 (stereo not drawn) [compound 7] | 0.96 | 0.9 | 1.05 | 0.95 | 0.78 | 1.17 |  |  |  |  | 

Source: PMC6199744, “Development of Chemical Proteomics for the Folateome and Analysis of the Kinetoplastid Folateome” (ACS Infectious Diseases, 2018)
